Read-outs that look alike come from different tables or passages of the source. Marks after values point to notes of the source that are not given here.
Assays:
Mice [1] = assay type: in vivo; settings: 6 days training
Protocol: 30 mice were divided into 3 groups (10 for each group, ? fifty-fifty): IV-12-1 (1 mg/kg), IV-12-2 (5 mg/kg) and NS. Half of the mice in each group were administrated (s.c.) in the morning and 30 minutes later put into a white box (with medicine), and trained for 30 minutes; Saline is administrated (s.c.) in the afternoon and 30 minutes later put into a black box (without medicine), and trained for 30 minutes. The other half of the group are given saline in the morning and IV-12 in the afternoon, other procedures are the same as above.
The two training periods were at least 6-hour apart and training was continuous for 6 days. On the 7th day, the staying time was tested in both of the boxes.

Mice [2] = test: Spontaneous activities of mice after oral IV-12; assay type: in vivo; settings: p.o. 15 or 30 mg/kg
rat [3] = test: animal or person; settings: for responders at 20 mg/kg: ip
Protocol: Using 55° C. hot plate pain threshold detector (available from Ninghai Baishi Electronic Medical Instrument Co., Zheijiang, China) the threshold change before and after administration of a pharmaceutical composition of the present invention is tested. […] hind paw was scrubbed with alcohol cotton ball before the experiment. The regular pain threshold was tested twice for each rat, the induced hind paw licking time being recorded as the pain threshold. Measurements were made at 20-30 minute intervals. Only rats with stable pain reaction were used in the pharmaceutical test.
(§1) Two species of animals (mice and rats) and four types of pain testing models (i.p. 0.7% acetic acid, s.c. 5% formalin, hot plate 55° C., focused radiant heat) were used.

NMDA receptor = test: Electrophysiology of hippocampus's pyramidal cell: NMDA-induced current; assay type: cell-based; settings: 100 μM NMDA; read-out: IC50 of suppression of current induced by NMDA
[4] = Summary of all three algogenic models; assay type: in vivo; settings: in words
Description: All the compounds mentioned above have profound for further value development.

[5] = tested on: S. typhimurium TA97, TA98, TA100 and TA102; test: Bacterial reverse-mutation assay (Ames); assay type: cell-based; settings: for Effect on bacterial growth: 5000 μg/plate
Description: Strains: S. typhimurium TA97, TA98, TA100 and TA102
Results: The assay included two parts without S9 and with S9. […] For all tested doses, there was no significant increase of revertants. Ames test for of IV-12 is negative.

Acute toxicity in rats = settings: rat, in vivo, po, Bliss method
rat [6] = test: Rat 5% formalin paw s.c.; assay type: in vivo; settings: p.o., read-out: Analgesia ED50
Protocol: as §1

Mice [7] = test: Mice 55° C. hot plate; assay type: in vivo; settings: Mus musculus, po, read-out: Analgesia ED50
Protocol: as §1

rat [8] = test: Rat tail flick model (focused radiant heat); assay type: in vivo; settings: po, read-out: Analgesia ED50
rats [9] = test: Conditional position preference in rats
Description: A commercially available device for testing (Med Associates Inc.) was used. Measurements were automatically recorded by a computer.
The data are indicated by means of […], t-test was employed to compare the data in different groups. The rats were divided randomly into groups by weight, 12 for each group. They were positive control groups. […] The experiments were divided into stages of accommodation, training and test. Accommodation: Open the doors between black box and grey box and the door between white box and grey box. put the rats in from the grey box; let them run free in the training box for 15 minutes for 4 days. Training: The white box is with medicine while the black one is without it. The period training is 10 days, the first day with the medicine while the second day not; the third day with the medicine while the fourth day not, so on and so forth. When carrying out the training with medicine, 15 minutes after the rat is administrated (i.g.) with medicine, it is put into the white box for 30 minutes. When the training is without medicine, 15 minutes after the rat is administrated (i.g.) with saline, it is put into the black box for 30 minutes. Test: On the 11th day, the rat is put into the training box, with the door open. The time the rat stays in each box, and the number of time it enters during 15 minutes were determined, and the percentage of the time staying in the white box to the time together in white box and black box is calculated (Table 12).

Kunming mice = test: Mice writhing model (acetic acid); assay type: in vivo
Method in brief: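 Mixed-sex mice received test compound at 20 mg/Kg i.p.; controls received saline p.o. (20 ml/Kg). Thirty minutes later 0.7% acetic acid (10 mg/kg i.p.) was injected, and writhes were counted over 5 minutes. Inhibition ratio was calculated relative to control.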

Mice [10] = test: Jumping test in mice (Narcan precipitated); assay type: in vivo; settings: for Times for jump (IV ± SD): 3 times per day for 7 days, Narcan i.p. 2 mg/kg
Protocol: Sixty-four mice were divided into 4 groups (16 for each group, ? fifty-fifty) Morphine, IV-12-1 (75 mg/Kg) IV-12-2 (100 mg/Kg) and saline were administrated respectively 3 times per day for 7 days with progressive dose increase. On the 7th day, Narcan is injected (i.p. 2 mg/kg) to precipitate withdrawal. The number of times for the mice to jump was recorded and the incidence of the jump calculated.

Mice [11] = test: Swelling caused by p-dimethylbenzene in mice; assay type: in vivo; settings: p.o. 15 or 30 mg/kg
Acute toxicity in mice = settings: mouse, in vivo, po, Bliss method
rats [12] = test: Spontaneous withdrawal tests (body weight); assay type: in vivo
Protocol: 96 mice were divided into 4 groups (24 for each group, ? fifty-fifty), and Morphine, IV-12-1, IV-12-2, warm boiled water were administered respectively, using progressive dose increase for 7 days (i.g.) and 2 times per day. The weight of the rats after drug withdrawal was compared with the weight one day before drug withdrawal at a corresponding time (See Table 9 and 10).

Compound: Nc1ccc(CN2CCN(CC(=O)c3ccccc3)CC2)cc1 [IV-12, N^1-(4-aminobenzyl)-N^4-phenacyl piperazine]
- Staying time in box with medicine (Mice [1]; 1 mg/kg s.c.): 496.4 ± 73.4 s
- Staying time in box with medicine (Mice [1]; 5 mg/kg s.c.): 452.8 ± 119.5 s
- Behaviour / spontaneous activities (Mice [2]): quiet and suppressed from spontaneous activities
- Increase (hot plate) (%) (rat [3]; 20 mg/kg, Table 5 summary): 100%
- responders at 20 mg/kg (rat [3]; Rattus norvegicus, read-out: Analgesic ratio (Increase by 100%)): 100%
- responders at 20 mg/kg (rat [3]; Rattus norvegicus, read-out: Analgesic ratio (More than 60 seconds)): 80%
- ED50 (rat [3]; Rattus norvegicus, po, read-out: Analgesia ED50): 52.4 mg/kg
- IC50 (NMDA receptor): 1.11 ± 1 µM
- Analgesic effect on all three algogenic models [4]: powerful analgesic effects
- Sedative effect on all three algogenic models [4]: rather significant sedative effect
- Effect on bacterial growth ([5]; with S9, TA97): inhibitory effect
- Effect on bacterial growth ([5]; without S9, TA98): inhibitory effect
- Ames test ([5]; without S9 and with S9, TA97, TA98, TA100, TA102): negative
- LD50 (Acute toxicity in rats): 414 mg/kg
- ED50 (rat [6]): 102 mg/kg
- ED50 (Mice [7]): 20.6 mg/kg
- ED50 (rat [8]): 162 mg/kg
- Percent in the medicine box (%) (rats [9]; 10 mg/kg i.g.): 46.1 ± 16.3%
- Percent in the medicine box (%) (rats [9]; 20 mg/kg i.g.): 51.9 ± 9.8%
- Percent in the medicine box (%) (rats [9]; 50 mg/kg i.g.): 62.9 ± 5.4 %
- Writhing (K i) (Kunming mice; 20 mg/kg, Table 5 summary): 100
- inhibition in vivo at 20 mg/kg (Kunming mice; Mus musculus, ip, i.p. 20 mg/Kg, acetic acid 0.7% i.p. after 30 minutes, writhes in 5 minutes, read-out: Analgesia (inhibition ratio of writhing)): 100%
- ED50 (Kunming mice; Mus musculus, po, Mice, Acetic acid Writhing, read-out: Analgesia ED50): 13.2 mg/kg
- Incidence for jump (%) (Mice [10]; IV-12-1 (75 mg/Kg)): 43.8*^## %
- Times for jump (IV ± SD) (Mice [10]; IV-12-1 (75 mg/Kg)): 9 ± 18
- Incidence for jump (%) (Mice [10]; IV-12-2 (100 mg/Kg)): 62.5* %
- Times for jump (IV ± SD) (Mice [10]; IV-12-2 (100 mg/Kg)): 33 ± 40
- Antagonism for swelling caused by p-dimethylbenzene (Mice [11]): no antagonism
- LD50 (Acute toxicity in mice): 309 mg/kg
- Weight after withdrawal compared with weight one day before withdrawal (rats [12]; IV-12-1 75 mg/kg, 138 h after withdrawal): 1.08 ± 0.06
- Increase (%) of weight (rats [12]; IV-12-1 (75 mg/kg), 18 h after withdrawal): 3.9%
- Increase (%) of weight (rats [12]; IV-12-1 (75 mg/kg), 36 h after withdrawal): 5.3%
- Weight (rats [12]; IV-12-1 (75 mg/kg), 60 h after withdrawal): 258.5 ± 38 g
- Weight (rats [12]; IV-12-1 (75 mg/kg), 72 h after withdrawal): 251.6 ± 36 g
- Weight after withdrawal compared with weight one day before withdrawal (rats [12]; IV-12-2 100 mg/kg, 18 h after withdrawal): 1.01 ± 0.04
- Increase (%) of weight (rats [12]; IV-12-2 (75 mg/kg), 60 h after withdrawal): 1.9%
- Weight (rats [12]; IV-12-2 (75 mg/kg), 114 h after withdrawal): 260.1 ± 30 g
- Increase (%) of weight (rats [12]; IV-12-2 (75 mg/kg), 132 h after withdrawal): 7.0%
- Weight after drug withdrawal (in words) (rats [12]; groups IV-12-1 and IV-12-2): did not decrease
